The text below walks through data of patent publication US10975093B2, “Fused 1,4-diazepines as BET protein degraders” (THE REGENTS OF THE UNIVERSITY OF MICHIGAN, priority 2016, dated 2021).

Assay type in all cases: cell-based
The subject of one assay is RS4; 11. Briefly: Cell growth inhibition, CellTiter-Glo Luminescent Cell Viability Assay, RS4;11. Conditions: Homo sapiens, 96 h, RS4;11 cells, 4 days incubation. As for the experimental part: (§1) Cell growth inhibitory activity of representative Compounds of the Disclosure was determined in various cell lines using CellTiter-Glo® Luminescent Cell Viability Assay. Cells were seeded in 384-well white opaque cell culture plates at a density of 2,000 cells/well with serially diluted compounds and incubated at 37° C. in an atmosphere of 95% air and 5% CO2 for 4 days. Cell viability was determined using the CellTiter-Glo® Luminescent Cell Viability Assay Kit (Promega, Madison, Wis.) according to the manufacture's instruction. Briefly, a volume of CellTiter-Glo® Reagent equal to the volume of cell culture medium was added to each well, and then the plates were incubated at room temperature for 10-20 minutes. The luminescent signal was measured using a Tecan Infinite M1000 multimode microplate reader (Tecan, Morrisville, N.C.). The half maximal inhibitory concentration (IC50) was calculated using the GraphPad Prism 5 software (GraphPad Software, La Jolla, Calif.).

A further assay deals with MOLM-13. As to the kind of experiment: Cell growth inhibition, CellTiter-Glo Luminescent Cell Viability Assay, MOLM-13. The following applies: Homo sapiens, MOLM-13 cells, 4 days incubation. A digest of the protocol:
(§2)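 IC50 values come from CellTiter-Glo ATP luminescence after a 4-day exposure to a compound dilution series. Seeding was 2,000 cells per well at 37° C under 5% CO2, with reagent read after 10-20 min at room temperature.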
A general note: ATP-based viability assays read luminescence as a measure of living cells.

Another assay deals with MDA-MB-231. As to the kind of experiment: Cell growth inhibition, CellTiter-Glo Luminescent Cell Viability Assay, MDA-MB-231. Conditions: Homo sapiens, MDA-MB-231 cells, 4 days incubation. A digest of the protocol:
as §2

Another assay has as its system MDA-MB-468. Briefly: Cell growth inhibition, CellTiter-Glo Luminescent Cell Viability Assay, MDA-MB-468. The following applies: Homo sapiens, 96 h, MDA-MB-468 cells, 4 days incubation. The method, then:
as §1

Structures are written as SMILES.

For `Cc1c(C#Cc2cncn2CCCC#Cc2cccc3c2C(=O)N(C2CCC(=O)NC2=O)C3=O)sc2c1C(c1ccc(Cl)cc1)=NCc1nnc(C)n1-2` (centres unmarked) [Cpd. No. 29, 4-(5-(5-((4-(4-chlorophenyl)-3,9-dimethyl-6H-thieno[3,2-f][1,2,4]triazolo[4,3-a][1,4]diazepin-2-yl)ethynyl)-1H-imidazol-1-yl)pent-1-yn-1-yl)-2-(2,6-dioxopiperidin-3-yl)isoindoline-1,3-dione], the IC50 (as a rule, the point on the concentration scale where inhibition reaches its midpoint) with RS4; 11 was 7 nM; with MOLM-13 (MOLM-13, 96 h), 22.8 nM; in the assay with MDA-MB-231 (MDA-MB-231, 96 h), greater than 100 nM; in the assay with MDA-MB-468, greater than 100 nM.
On to `Cc1c(C#Cc2ccc(CCCCNc3cccc4c3CN(C3CCC(=O)NC3=O)C4=O)cn2)sc2c1C(c1ccc(Cl)cc1)=NCc1nnc(C)n1-2` (centres unmarked) [Cpd. No. 7, 3-(4-((4-(6-((4-(4-chlorophenyl)-3,9-dimethyl-6H-thieno[3,2-f][1,2,4]triazolo[4,3-a][1,4]diazepin-2-yl)ethynyl)pyridin-3-yl)butyl)amino)-1-oxoisoindolin-2-yl)piperidine-2,6-dione], for which the half-inhibitory concentration (IC50) in the assay with RS4; 11 was found to be 0.81 nM; with MOLM-13 (96 h), 4.2 nM; with MDA-MB-231 (96 h), 6.08 nM; with MDA-MB-468 it was 10.7 nM.
For `Cc1c(C#Cc2cn(CCCCCc3cccc4c3CN(C3CCC(=O)NC3=O)C4=O)nn2)sc2c1C(c1ccc(Cl)cc1)=N[C@@H](C)c1nnc(C)n1-2` (stereo partly drawn) [Cpd. No. 4, 3-(4-(5-(4-(((S)-4-(4-chlorophenyl)-3,6,9-trimethyl-6H-thieno[3,2 f][1,2,4]triazolo[4,3-a][1,4]diazepin-2-yl)ethynyl)-1H-1,2,3-triazol-1-yl)pentyl)-1-oxoisoindolin-2-yl)piperidine-2,6-dione] the same measures were less than 0.0015 nM, 0.3 nM, less than 0.015 nM and less than 0.015 nM.
Take `Cc1c(C#Cc2cnn(CCCCCc3cccc4c3CN(C3CCC(=O)NC3=O)C4=O)c2)sc2c1C(c1ccc(Cl)cc1)=NCc1nnc(C)n1-2` (centres unmarked) [Cpd. No. 23, 3-(4-(5-(4-((4-(4-chlorophenyl)-3,9-dimethyl-6H-thieno[3,2-f][1,2,4]triazolo[4,3-a][1,4]diazepin-2-yl)ethynyl)-1H-pyrazol-1-yl)pentyl)-1-oxoisoindolin-2-yl)piperidine-2,6-dione]: the IC50 in the assay with RS4; 11 is 0.3 nM; in the assay on MOLM-13 (MOLM-13, 96 h), 1.9 nM; with MDA-MB-231 (MDA-MB-231, 96 h), 1.7 nM; in the assay on MDA-MB-468 it was 4.2 nM.
For `Cc1c(C#Cc2cn(CCCC#Cc3cccc4c3CN(C3CCC(=O)NC3=O)C4=O)nn2)sc2c1C(c1ccc(Cl)cc1)=N[C@@H](C)c1nnc(C)n1-2` (stereo partly drawn) [Cpd. No. 2, 3-(4-(5-(4-(((S)-4-(4-chlorophenyl)-3,6,9-trimethyl-6H-thieno[3,2-f][1,2,4]triazolo[4,3-a][1,4]diazepin-2-yl)ethynyl)-1H-1,2,3-triazol-1-yl)pent-1-yn-1-yl)-1-oxoisoindolin-2-yl)piperidine-2,6-dione], the IC50 with RS4; 11 was less than 0.0015 nM; in the assay on MOLM-13 (96 h) it was 0.4 nM; in the assay with MDA-MB-231 (96 h), 0.19 nM; with MDA-MB-468, 0.27 nM.
As to `Cc1c(C#Cc2cnn(CCCC#Cc3cccc4c3CN(C3CCC(=O)NC3=O)C4=O)c2)sc2c1C(c1ccc(Cl)cc1)=NCc1nnc(C)n1-2` (centres unmarked) [Cpd. No. 20, 3-(4-(5-(4-((4-(4-chlorophenyl)-3,9-dimethyl-6H-thieno[3,2-f][1,2,4]triazolo[4,3-a][1,4]diazepin-2-yl)ethynyl)-1H-pyrazol-1-yl)pent-1-yn-1-yl)-1-oxoisoindolin-2-yl)piperidine-2,6-dione], the concentration for half-maximal inhibition (IC50) in the assay on RS4; 11 worked out at 0.1 nM; in the assay with MOLM-13 (MOLM-13, 96 h), 0.8 nM; in the assay on MDA-MB-231 (MDA-MB-231, 96 h), 0.08 nM; in the assay with MDA-MB-468 it was 0.2 nM.
As for `Cc1c(C#Cc2ccc(CCCCOc3cccc4c3C(=O)N(C3CCC(=O)NC3=O)C4=O)cn2)sc2c1C(c1ccc(Cl)cc1)=NCc1nnc(C)n1-2` (centres unmarked) [Cpd. No. 9, 4-(4-(6-((4-(4-chlorophenyl)-3,9-dimethyl-6H-thieno[3,2-f][1,2,4]triazolo[4,3-a][1,4]diazepin-2-yl)ethynyl)pyridin-3-yl)butoxy)-2-(2,6-dioxopiperidin-3-yl)isoindoline-1,3-dione], the concentration for half-maximal inhibition (IC50) in the assay with RS4; 11 amounted to 2.3 nM; in the assay with MOLM-13 (96 h) it was 19 nM; with MDA-MB-231 (96 h) it was 20.4 nM; in the assay on MDA-MB-468 it was 33 nM.
In the case of `Cc1c(C#Cc2cn(CCCC#Cc3cccc4c3CN(C3CCC(=O)NC3=O)C4=O)nn2)sc2c1C(c1ccc(Cl)cc1)=NCc1nnc(C)n1-2` (centres unmarked) [Cpd. No. 1, 3-(4-(5-(4-((4-(4-chlorophenyl)-3,9-dimethyl-6H-thieno[3,2-f][1,2,4]triazolo[4,3-a][1,4]diazepin-2-yl)ethynyl)-1H-1,2,3-triazol-1-yl)pent-1-yn-1-yl)-1-oxoisoindolin-2-yl)piperidine-2,6-dione], the IC50 in the assay with RS4; 11 amounted to 0.25 nM; with MOLM-13 (96 h), 1.16 nM; with MDA-MB-231 (96 h) it was 8.1 nM; in the assay with MDA-MB-468, 10 nM.
Turning to `Cc1c(C#Cc2cnn(CCCCNc3cccc4c3C(=O)N(C3CCC(=O)NC3=O)C4=O)c2)sc2c1C(c1ccc(Cl)cc1)=N[C@@H](C)c1nnc(C)n1-2` (stereo partly drawn) [Cpd. No. 22, 4-((4-(4-(((S)-4-(4-chlorophenyl)-3,6,9-trimethyl-6H-thieno[3,2-f][1,2,4]triazolo[4,3-a][1,4]diazepin-2-yl)ethynyl)-1H-pyrazol-1-yl)butyl)amino)-2-(2,6-dioxopiperidin-3-yl)isoindoline-1,3-dione], the IC50 in the assay on RS4; 11 came to 0.2 nM; in the assay on MOLM-13 (MOLM-13, 96 h) it was 0.9 nM; with MDA-MB-231 (MDA-MB-231, 96 h), 0.9 nM; in the assay on MDA-MB-468, 1.8 nM.
As to `Cc1c(C#Cc2cn(CCCCCc3cccc4c3CN(C3CCC(=O)NC3=O)C4=O)nn2)sc2c1C(c1ccc(Cl)cc1)=NCc1nnc(C)n1-2` (centres unmarked) [Cpd. No. 3, 3-(4-(5-(4-((4-(4-chlorophenyl)-3,9-dimethyl-6H-thieno[3,2-f][1,2,4]triazolo[4,3-a][1,4]diazepin-2-yl)ethynyl)-1H-1,2,3-triazol-1-yl)pentyl)-1-oxoisoindolin-2-yl)piperidine-2,6-dione], the IC50 with RS4; 11 is 0.27 nM; in the assay on MOLM-13 (96 h), 1 nM; in the assay with MDA-MB-231 (96 h) it was 3.5 nM; in the assay on MDA-MB-468, 3.1 nM.
In the same order, the values of `Cc1c(C#Cc2cn(CCCC#Cc3cccc4c3CN(C3CCC(=O)NC3=O)C4=O)cn2)sc2c1C(c1ccc(Cl)cc1)=NCc1nnc(C)n1-2` (centres unmarked) [Cpd. No. 26, 3-(4-(5-(4-((4-(4-chlorophenyl)-3,9-dimethyl-6H-thieno[3,2-f][1,2,4]triazolo[4,3-a][1,4]diazepin-2-yl)ethynyl)-1H-imidazol-1-yl)pent-1-yn-1-yl)-1-oxoisoindolin-2-yl)piperidine-2,6-dione] are greater than 10 nM, 39.2 nM, greater than 100 nM and greater than 100 nM.
